Data taken from the NIST ThermoML archive (doi:10.1016/j.jct.2006.06.008).
Numbers after ± are expanded uncertainties.

Key:
[1] = 101 kPa, Liquid
[2] = xn = mol fraction of the nth substance listed; conditions: 101 kPa, Liquid

C1CCCC1 [cyclopentane]
[1]
Conditions	mass density [kg/m3]	speed of sound [m/s]	viscosity [mPa·s]
293.15 K	744.52 ± 0.63	1232 ± 2	0.439 ± 0.013
298.15 K	739.55 ± 0.64	1206 ± 2	0.416 ± 0.012
303.15 K	734.54 ± 0.65	1180 ± 2	0.394 ± 0.012

C1CCCCC1 [cyclohexane] + CCCO
[2]
Conditions	mass density, 293.15 K [kg/m3]	mass density, 298.15 K [kg/m3]	mass density, 303.15 K [kg/m3]	speed of sound, 293.15 K [m/s]	speed of sound, 298.15 K [m/s]	speed of sound, 303.15 K [m/s]	viscosity, 293.15 K [mPa·s]	viscosity, 298.15 K [mPa·s]	viscosity, 303.15 K [mPa·s]
x1 = 0.0487	801.17 ± 0.55	797.11 ± 0.56	793.02 ± 0.56	1222 ± 2	1205 ± 2	1187 ± 2	2.079 ± 0.05	1.842 ± 0.044	1.645 ± 0.04
x1 = 0.0993	798.82 ± 0.55	794.71 ± 0.55	790.56 ± 0.56	1222 ± 2	1204 ± 2	1186 ± 2	1.958 ± 0.047	1.74 ± 0.042	1.552 ± 0.038
x1 = 0.1967	794.76 ± 0.53	790.54 ± 0.54	786.28 ± 0.55	1223 ± 2	1204 ± 2	1185 ± 2	1.735 ± 0.042	1.544 ± 0.038	1.379 ± 0.034
x1 = 0.2993	791.11 ± 0.52	786.78 ± 0.53	782.41 ± 0.54	1225 ± 2	1205 ± 2	1185 ± 2	1.544 ± 0.037	1.38 ± 0.034	1.234 ± 0.031
x1 = 0.4017	787.98 ± 0.51	783.54 ± 0.52	779.05 ± 0.53	1228 ± 2	1207 ± 2	1186 ± 2	1.391 ± 0.034	1.249 ± 0.031	1.124 ± 0.028
x1 = 0.5071	785.25 ± 0.5	780.71 ± 0.51	776.12 ± 0.52	1233 ± 2	1211 ± 2	1189 ± 2	1.253 ± 0.031	1.126 ± 0.028	1.015 ± 0.026
x1 = 0.6048	783.08 ± 0.5	778.47 ± 0.5	773.8 ± 0.51	1238 ± 2	1215 ± 2	1193 ± 2	1.135 ± 0.028	1.026 ± 0.026	0.937 ± 0.024
x1 = 0.7036	781.23 ± 0.49	776.55 ± 0.5	771.82 ± 0.5	1244 ± 2	1221 ± 2	1198 ± 2	1.036 ± 0.026	0.941 ± 0.024	0.858 ± 0.022
x1 = 0.8062	779.66 ± 0.49	774.94 ± 0.49	770.17 ± 0.5	1252 ± 2	1228 ± 2	1204 ± 2	0.98 ± 0.025	0.895 ± 0.023	0.822 ± 0.021
x1 = 0.9053	778.68 ± 0.48	773.93 ± 0.49	769.14 ± 0.5	1262 ± 2	1237 ± 2	1213 ± 2	0.972 ± 0.024	0.887 ± 0.022	0.816 ± 0.021
x1 = 0.9522	778.41 ± 0.48	773.66 ± 0.49	768.87 ± 0.49	1268 ± 2	1243 ± 2	1219 ± 2	0.969 ± 0.024	0.892 ± 0.023	0.81 ± 0.021
x1 = 1	778.62 ± 0.48	773.92 ± 0.48	769.19 ± 0.49	1279 ± 2	1254 ± 2	1230 ± 2	0.968 ± 0.024	0.887 ± 0.022	0.816 ± 0.021

CCO [ethanol]
[1]
Conditions	mass density [kg/m3]	speed of sound [m/s]	viscosity [mPa·s]
293.15 K	789.75 ± 0.46	1162 ± 3	1.187 ± 0.029
298.15 K	785.46 ± 0.47	1145 ± 2	1.082 ± 0.027
303.15 K	781.15 ± 0.47	1128 ± 2	0.987 ± 0.025

C1CCCCC1 [cyclohexane]
[1]
Conditions	mass density [kg/m3]	speed of sound [m/s]	viscosity [mPa·s]
293.15 K	778.62 ± 0.48	1279 ± 3	0.968 ± 0.024
298.15 K	773.92 ± 0.48	1254 ± 3	0.887 ± 0.022
303.15 K	769.19 ± 0.49	1230 ± 3	0.816 ± 0.021
